From paper PMC11012124, “Synthesis of Novel Triazine-Based Chalcones and 8,9-dihydro-7H-pyrimido[4,5-b][1,4]diazepines as Potential Leads in the Search of Anticancer, Antibacterial and Antifungal Agents” (International Journal of Molecular Sciences, 2024)

Tests used:
M14 = assay: cells; conditions: Homo sapiens, M14, 48 h
SW-620 = assay: cells; conditions: Homo sapiens, SW-620, 48 h
TK-10 = assay: cells; conditions: Homo sapiens, TK-10, 48 h
MCF7 = assay: cells; conditions: Homo sapiens, MCF7, 48 h
HOP-92 = assay: cells; conditions: Homo sapiens, HOP-92, 48 h
EKVX = assay: cells; conditions: Homo sapiens, 48 h
LOX IMVI = assay: cells; conditions: Homo sapiens, 48 h
MOLT-4 = assay: cells; conditions: Homo sapiens, MOLT-4, 48 h
ACHN = assay: cells; conditions: Homo sapiens, 48 h
UACC-257 = assay: cells; conditions: Homo sapiens, UACC-257, 48 h
HCT-116 = assay: cells; conditions: Homo sapiens, HCT-116, 48 h
PC-3 = assay: cells; conditions: Homo sapiens, PC-3, 48 h
60 cancer cell lines = assay: NCI-60 one-dose screen (10 μM); type: cell-based; conditions: Homo sapiens; one dose of 10 μM, mean over 60 cancer cell lines; read-out: Mean Growth Percent (MGP)
Source text: Additionally, the mean of the growth percentages (MGP) of each compound against all the 60 cancer cell lines is also reported, which is used as one of the selection criteria to continue with tests at five concentration doses.

SK-OV-3 = assay: cells; conditions: Homo sapiens, SK-OV-3, 48 h
MALME-3M = assay: cells; conditions: Homo sapiens, 48 h
RXF 393 = assay: cells; conditions: Homo sapiens, RXF 393, 48 h
SN12C = assay: cells; conditions: Homo sapiens, 48 h
OVCAR-5 = assay: cells; conditions: Homo sapiens, OVCAR-5, 48 h
A498 = assay: cells; conditions: Homo sapiens, A498, 48 h
NCI-H226 = assay: cells; conditions: Homo sapiens, NCI-H226, 48 h
HL-60(TB) = assay: cells; conditions: Homo sapiens, HL-60, 48 h
MDA-MB-231/ATCC = assay: cells; conditions: Homo sapiens, MDA-MB-231, 48 h
MDA-MB-435 = assay: cells; conditions: Homo sapiens, MDA-MB-435, 48 h
SK-MEL-28 = assay: cells; conditions: Homo sapiens, SK-MEL-28, 48 h
A549/ATCC = assay: cells; conditions: Homo sapiens, A549, 48 h
OVCAR-8 = assay: cells; conditions: Homo sapiens, OVCAR-8, 48 h
HS 578T = assay: cells; conditions: Homo sapiens, 48 h
[1] = Hemolytic activity, spectrophotometric; type: cell-based, human; conditions: human, human red blood cells (huRBC), 5% hematocrit, 200 μg/mL, 37 °C
SF-539 = assay: cells; conditions: Homo sapiens, SF-539, 48 h
BT-549 = assay: cells; conditions: Homo sapiens, BT-549, 48 h
NCI-H460 = assay: cells; conditions: Homo sapiens, NCI-H460, 48 h
K-562 = assay: cells; conditions: Homo sapiens, K562, 48 h
CCRF-CEM = assay: cells; conditions: Homo sapiens, 48 h
HCC-2998 = assay: cells; conditions: Homo sapiens, HCC 2998, 48 h
RPMI-8226 = assay: cells; conditions: Homo sapiens, RPMI-8226, 48 h
IGROV1 = assay: cells; conditions: Homo sapiens, IGROV-1, 48 h
SNB-75 = assay: cells; conditions: Homo sapiens, SNB-75, 48 h

For `COc1cc(/C=C/C(=O)c2ccc(C)cc2)ccc1Oc1nc(NCCO)nc(N2CCOCC2)n1` [20b], which GI50 (M14) is on record?
Its GI50 is 2.03 µM.

What about the CC50 (M14; read-out: LC50) of the same compound?
The CC50 was over 100 µM.

And the GI50 (SW-620)?
The GI50 was 1.64 µM.

And the CC50 (SW-620; read-out: LC50)?
Its CC50 is over 100 µM.

And the GI50 (TK-10)?
Its GI50 is over 100 µM.

And the CC50 (TK-10; read-out: LC50)?
The CC50 was over 100 µM.

And the GI50 (MCF7)?
The GI50 was 1.5 µM.

And the CC50 (MCF7; read-out: LC50)?
Its CC50 is over 100 µM.

What about the GI50 (HOP-92) of the same compound?
Its GI50 is 8.4 µM.

What about the CC50 (HOP-92; read-out: LC50) of the same compound?
Its CC50 is over 100 µM.

What about the GI50 (EKVX) of the same compound?
The GI50 was 3.9 µM.

What about the CC50 (EKVX; read-out: LC50) of the same compound?
The CC50 was over 100 µM.

And the GI50 (LOX IMVI)?
The GI50 was 0.43 µM.

And the CC50 (LOX IMVI; read-out: LC50, LOX IMVI, 48 h)?
Its CC50 is 4.09 µM.

And the GI50 (MOLT-4)?
Its GI50 is 2.09 µM.

What about the CC50 (MOLT-4; read-out: LC50) of the same compound?
Its CC50 is over 100 µM.

And the GI50 (ACHN)?
Its GI50 is 1.94 µM.

What about the GI50 (UACC-257) of the same compound?
Its GI50 is 3.98 µM.

What about the CC50 (UACC-257; read-out: LC50) of the same compound?
Its CC50 is over 100 µM.

And the GI50 (HCT-116)?
Its GI50 is 1.73 µM.

And the GI50 (PC-3)?
The GI50 was 2.53 µM.

What about the CC50 (PC-3; read-out: LC50) of the same compound?
The CC50 was over 100 µM.

And the activity at 10 µM (60 cancer cell lines)?
Its activity at 10 µM is 48.9%.

And the GI50 (SK-OV-3)?
Its GI50 is 23 µM.

And the CC50 (SK-OV-3; read-out: LC50)?
Its CC50 is over 100 µM.

And the GI50 (MALME-3M)?
Its GI50 is 2.29 µM.

What about the CC50 (MALME-3M; read-out: LC50) of the same compound?
Its CC50 is over 100 µM.

What about the GI50 (RXF 393) of the same compound?
The GI50 was 2.07 µM.

What about the GI50 (SN12C) of the same compound?
Its GI50 is 2.35 µM.

What about the CC50 (SN12C; read-out: LC50) of the same compound?
The CC50 was over 100 µM.

What about the GI50 (OVCAR-5) of the same compound?
The GI50 was 3.22 µM.

And the CC50 (OVCAR-5; read-out: LC50)?
The CC50 was over 100 µM.

What about the GI50 (A498) of the same compound?
The GI50 was over 100 µM.

And the CC50 (A498; read-out: LC50)?
The CC50 was over 100 µM.

What about the GI50 (NCI-H226) of the same compound?
Its GI50 is 6.28 µM.

And the CC50 (NCI-H226; read-out: LC50)?
Its CC50 is over 100 µM.

And the GI50 (HL-60(TB))?
Its GI50 is 2.07 µM.

And the CC50 (HL-60(TB); read-out: LC50)?
Its CC50 is over 100 µM.

And the GI50 (MDA-MB-231/ATCC)?
Its GI50 is 2.98 µM.

And the CC50 (MDA-MB-231/ATCC; read-out: LC50)?
The CC50 was over 100 µM.

What about the GI50 (MDA-MB-435) of the same compound?
The GI50 was 3.31 µM.

And the CC50 (MDA-MB-435; read-out: LC50)?
The CC50 was over 100 µM.

And the GI50 (SK-MEL-28)?
The GI50 was 2.5 µM.

And the CC50 (SK-MEL-28; read-out: LC50)?
Its CC50 is over 100 µM.

And the GI50 (A549/ATCC)?
The GI50 was 9.47 µM.

What about the CC50 (A549/ATCC; read-out: LC50) of the same compound?
The CC50 was over 100 µM.

What about the GI50 (OVCAR-8) of the same compound?
The GI50 was 1.76 µM.

What about the GI50 (HS 578T) of the same compound?
The GI50 was 4.6 µM.

And the CC50 (HS 578T; read-out: LC50)?
Its CC50 is over 100 µM.

What about the hemolysis at 24 h, 200 µg/mL [1] of the same compound?
The hemolysis at 24 h, 200 µg/mL was 3.3%.

What about the GI50 (SF-539) of the same compound?
Its GI50 is 1.88 µM.

And the GI50 (BT-549)?
Its GI50 is 1.62 µM.

What about the GI50 (NCI-H460) of the same compound?
The GI50 was 2.2 µM.

What about the CC50 (NCI-H460; read-out: LC50) of the same compound?
The CC50 was over 100 µM.

What about the GI50 (K-562; K-562, 48 h) of the same compound?
Its GI50 is 1.53 µM.

What about the CC50 (K-562; read-out: LC50) of the same compound?
Its CC50 is over 100 µM.

What about the GI50 (CCRF-CEM) of the same compound?
Its GI50 is 2.71 µM.

And the CC50 (CCRF-CEM; read-out: LC50)?
Its CC50 is over 100 µM.

What about the GI50 (HCC-2998) of the same compound?
Its GI50 is 2.08 µM.

And the GI50 (RPMI-8226)?
Its GI50 is 1.72 µM.

What about the CC50 (RPMI-8226; read-out: LC50) of the same compound?
The CC50 was over 100 µM.

And the GI50 (IGROV1)?
Its GI50 is 3.1 µM.

What about the CC50 (IGROV1; read-out: LC50) of the same compound?
The CC50 was over 100 µM.

And the GI50 (SNB-75)?
Its GI50 is over 100 µM.

And the CC50 (SNB-75; read-out: LC50)?
Its CC50 is over 100 µM.
